Literature values in patent US7897820B2, “Process for preparing erianin” (Zhe Jiang Cell Biomedical Research Co., Ltd., priority 2005, dated 2011).

What was measured:
microtubulin = conditions: target is the microtubulin in the cell
tumor cell strain K256 = conditions: among dihydrobibenzyls and phenanthrenes in Dendrobium chrysotoxum
[1] = compared with 5FU
[2] = test system: human leukemia HL-60 cells

Structure (SMILES): COc1ccc(CCc2cc(OC)c(OC)c(OC)c2)cc1O [Erianin, 2-methoxyl-5-[2-(3,4,5-trimethoxyphenyl)]ethyl phenol]
- effect on polymerizing of microtubulin (microtubulin): inhibit the polymerizing of microtubulin
- inhibitory effect on the growth of tumor cell strain K256 (tumor cell strain K256): most active
- tumor inhibitory rate (liver cancer of mouse): 50.82%
- side effect [1]: far lower then 5FU
- inhibition of growth of human leukemia HL-60 cells [2]: significantly inhibited the growth
